pIC50: −log10 of the molar value.
Target: PAI-1 (Homo sapiens, UniProt P05121)
Test: PAI-1 assay (direct chromogenic assay, inhibitory activity of PAI-1 against uPA)
Assay type: biochemical
Details: substrate N-CBZ-VAL-GLY-ARG p-nitroanilide, 10 minute incubation at 37° C., read-out: PAI-1 inhibitory activity in vitro, IC50
Description: The inhibitory activity of PAI-1 against uPA was measured by a direct chromogenic assay using the substrate N-CBZ-VAL-GLY-ARG p-nitroanilide. The tested compound was added to PAI-1 which had been diluted in activity assay buffer (0.05M Hepes, pH 7.5, 0.15M NaCl, containing 0.05% N-octyl-D-glucopyranoside and 250 μg/ml bovine serum albumin). After a 10 minute incubation at 37° C., uPA was added (0.04 units/assay), followed immediately by the addition of substrate. After reequilibration at 37° C., residual uPA activity was quantified by measuring the change in absorbance at 405 nm over 12 minutes. The concentration of active PAI-1 in the assays was the amount required to inhibit 80-85% of uPA as compared to samples containing uPA alone.
Compounds No. 1 to 37 were tested in the PAI-1 assay as described above.

Chain of PAI-1 (P05121 24-402): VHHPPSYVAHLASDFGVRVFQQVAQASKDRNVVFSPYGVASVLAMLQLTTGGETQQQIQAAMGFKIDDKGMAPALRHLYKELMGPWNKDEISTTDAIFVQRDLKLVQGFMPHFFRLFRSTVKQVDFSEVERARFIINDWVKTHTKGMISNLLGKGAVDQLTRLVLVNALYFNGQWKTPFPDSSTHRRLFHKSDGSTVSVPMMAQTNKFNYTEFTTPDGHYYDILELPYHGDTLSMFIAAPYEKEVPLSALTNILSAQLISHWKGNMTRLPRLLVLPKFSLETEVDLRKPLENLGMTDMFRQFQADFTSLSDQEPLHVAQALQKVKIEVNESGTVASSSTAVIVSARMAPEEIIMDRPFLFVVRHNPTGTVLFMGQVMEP

Structure (SMILES)	pIC50
N#Cc1ccc(Nc2nc(-c3ccc(-c4ccccc4)cc3)cs2)cc1 [Compound 11, 4-{[4-(4-phenylphenyl)-1,3-thiazol-2-yl]amino}benzenecarbonitrile]	5.80
CCc1cc2c(cc1-c1csc(Nc3ccc(C(=O)O)cc3)n1)C(C)(C)CCC2(C)C [Compound 2, 4-{[4-(3-ethyl-5,5,8,8-tetramethyl-2-5,6,7,8-tetrahydronaphthyl)-1,3-thiazol-2-yl]amino}benzoic acid]	5.74
CCc1cc2c(cc1-c1csc(Nc3cccc(C(=O)O)c3)n1)C(C)(C)CCC2(C)C [Compound 3]	5.96

— US6586453B2, “Substituted thiazoles and the use thereof as inhibitors of plasminogen activator inhibitor-1” (3-Dimensional Pharmaceuticals, Inc., priority 2000, dated 2003)
